The source made the active and inactive calls.
What was measured:
[1] = molecular target: T1, Heat shock factor protein 1 (Mus musculus, UniProt P38532); assay: inhibition of MG132-induced HSE-luciferase signal, confirmation, cell-based, NIH3T3, luminescence, dose retest (AID 2382); assay type: functional;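 note: NIH3T3 fibroblasts with HSF1-driven luciferase reporter stressed by proteasome inhibitor MG132; luminescence from HSF1-driven luciferase expression after 8 hours of MG132 stress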
T1 sequence (P38532 whole entry): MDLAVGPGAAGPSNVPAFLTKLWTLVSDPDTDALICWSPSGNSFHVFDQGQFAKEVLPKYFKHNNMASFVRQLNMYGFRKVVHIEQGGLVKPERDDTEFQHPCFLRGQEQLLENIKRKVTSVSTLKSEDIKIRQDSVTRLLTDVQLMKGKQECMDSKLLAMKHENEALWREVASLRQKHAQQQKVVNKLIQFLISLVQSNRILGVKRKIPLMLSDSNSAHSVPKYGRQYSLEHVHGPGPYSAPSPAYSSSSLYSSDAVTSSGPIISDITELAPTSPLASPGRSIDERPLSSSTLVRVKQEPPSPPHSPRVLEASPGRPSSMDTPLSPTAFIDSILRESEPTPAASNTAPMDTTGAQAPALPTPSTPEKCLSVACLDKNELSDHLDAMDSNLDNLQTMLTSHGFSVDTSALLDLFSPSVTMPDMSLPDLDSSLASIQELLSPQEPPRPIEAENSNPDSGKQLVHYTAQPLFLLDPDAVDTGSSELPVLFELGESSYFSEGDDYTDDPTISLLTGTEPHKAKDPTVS

[2] = cytotoxicity toward NIH3T3 fibroblasts, dose response, counter-screen, cell-based, ATP luminescence, mouse fibroblasts (AID 2010); assay type: functional;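 note: cells exposed to compound for about 90 hours before reading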
[3] = inhibitors of intracellular T. cruzi replication, confirmation, NIH3T3 host cells, beta-gal luminescence (AID 2044); assay type: functional, cell-based;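 note: intracellular parasites grown in NIH/3T3 mouse fibroblasts as host cells; luminescent beta-galactosidase reporter signal from transgenic T. cruzi replicating inside host cells; inhibitors lower the luminescence signal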
Cytochrome P450 2C19 = Cytochrome P450 2C19 (Homo sapiens, UniProt P33261); assay: Cytochrome panel assay with activity outcomes. Panel member name: p450-cyp2c19 Compounds with AC50 equal or less than 10 uM are considered active; assay type: functional
Cytochrome P450 2C19, sequence (P33261 whole entry): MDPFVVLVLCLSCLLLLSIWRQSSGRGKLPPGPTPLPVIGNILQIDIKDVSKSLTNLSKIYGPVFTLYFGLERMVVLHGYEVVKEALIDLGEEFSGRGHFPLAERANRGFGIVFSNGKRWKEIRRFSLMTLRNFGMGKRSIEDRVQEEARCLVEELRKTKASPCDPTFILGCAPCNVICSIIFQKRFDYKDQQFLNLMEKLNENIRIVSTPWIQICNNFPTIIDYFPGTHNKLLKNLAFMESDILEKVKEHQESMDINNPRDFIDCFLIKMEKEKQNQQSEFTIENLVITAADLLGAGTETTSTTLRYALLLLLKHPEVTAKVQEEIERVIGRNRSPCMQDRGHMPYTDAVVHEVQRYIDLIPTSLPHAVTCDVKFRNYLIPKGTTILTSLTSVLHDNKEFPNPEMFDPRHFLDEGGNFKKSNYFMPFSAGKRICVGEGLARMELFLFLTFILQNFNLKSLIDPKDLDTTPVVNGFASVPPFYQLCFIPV

Row | SMILES | EC50 [1] | EC50 [2] | EC50 [3] | further results
1 | Cn1c(-c2nonc2N)nc2ccccc21 | > 195 µM (not active) |  |  | 
2 | CCc1ccccc1NC(=O)CSc1nnc(-c2ccncc2)o1 | > 195 µM (not active) |  |  | 
3 | CC(=O)C1=C(O)C(=O)N(c2ccc(C)cc2)C1c1ccccn1 (stereo unspecified) | > 195 µM (not active) |  |  | 
4 | CC1=C(C(=O)N2CCc3ccccc32)C2(CCC(C)CC2)OC1=O (stereo unspecified) |  | > 60 µM (not active) | 2.67 µM (active) | 
5 | COC(=O)c1c[nH]nc1N=C(S)Nc1ccc(Cl)c(Cl)c1 | 0.249 µM (active) |  |  | 
6 | CC(NC(=O)c1ccc2c(c1)OCO2)c1ccccc1 (stereo unspecified) | > 195 µM (not active) |  |  | 
7 | CCCCSc1nc2ccc(Nc3nc(N4CCOCC4)nc(N4CCOCC4)n3)cc2s1 |  | > 60 µM (not active) | 1.45 µM (active) | 
8 | O=C(CCc1nc(O)c2ccccc2n1)N1CCN(C/C=C/c2ccccc2)CC1 |  | > 30 µM (not active) | 0.276 µM (active) | 
9 | CCCCSc1nc2sc3c(c2c(=O)n1-c1ccccc1)CCN(C)C3 |  | > 60 µM (not active) | 0.143 µM (active) | 
10 | CCN1CCN(C(=O)C2CCN(C(=O)c3cc4sccc4n3CC)CC2)CC1 | > 195 µM (not active) |  |  | 
11 | C/C(=C\C=C/[C@@H](C)C(=O)O)[C@H]1CN[C@H](C(=O)O)[C@@H]1CC(=O)O |  |  |  | AC50 (Cytochrome P450 2C19): inconclusive
12 | CCOc1ccc2nc(O)c(CN(Cc3cccs3)Cc3nnnn3C(C)(C)CC)cc2c1 |  | > 30 µM (not active) | 2.56 µM (active) | 
13 | Cc1cc(N2CCN(C)CC2)nc2ccc(NC(=O)c3ccccc3F)cc12 |  | > 60 µM (not active) | 1.02 µM (active) | 
14 | COc1ccc(-c2cc(C(=O)N3CCN(c4cccc(C)c4C)CC3)c3ccccc3n2)cc1OC |  | > 60 µM (not active) | 2.93 µM (active) | 
15 | CC(C)CCNC(=O)CN=C(S)N(Cc1ccccc1)Cc1cccnc1 |  | > 60 µM (not active) | 0.65 µM (active) | 
16 | FC(F)(F)c1cccc(-c2cc(C3CCNCC3)n[nH]2)c1 |  | 8.6 µM (active) | 3.5 µM (active) | 
17 | CCC(=O)N1C(C(=O)N2CCCC2)CSC1c1ccc(OC)cc1 (stereo unspecified) | 32.2 µM (active) |  |  | 
18 | O=C(NCc1ccncc1)c1ccc(Cl)c(S(=O)(=O)N2CCOCC2)c1 | > 195 µM (not active) |  |  | 
19 | Clc1ccc(SCCOCCN2CCOCC2)cc1 |  | > 60 µM (not active) | 0.803 µM (active) | 

Row | SMILES | EC50 [1] | EC50 [2] | EC50 [3] | further results
20 | Cc1ccc(C(=O)NC(=S)Nc2ccc(Oc3ccc(Cl)cc3)cc2)cc1 |  | > 60 µM (inconclusive) | 2.09 µM (active) | 
21 | Cc1ccc2sc(N(CCCN(C)C)C(=O)c3ccc(S(=O)(=O)N(C)Cc4ccccc4)cc3)nc2c1C |  | 11.7 µM (active) | 0.451 µM (active) | 
22 | CCOc1cc(C)c(Cl)cc1S(=O)(=O)n1ccnc1 |  | 21.4 µM (active) | 1.83 µM (active) | 
23 | O=C(Nc1ccncc1)c1ccc(-c2ccccc2)cc1 |  | > 60 µM (inconclusive) | 1.44 µM (active) | 
24 | CCC(Sc1nc2cc(OC)c(OC)cc2c(=O)n1CCc1ccc(S(N)(=O)=O)cc1)C(=O)NCCOC (stereo unspecified) | > 195 µM (not active) |  |  | 
25 | Nc1c(S(N)(=O)=O)cc(S(N)(=O)=O)cc1S(N)(=O)=O |  |  |  | AC50 (Cytochrome P450 2C19): inconclusive
26 | COc1ccccc1-n1ccnc(SCC(=O)NCc2ccccc2)c1=O | > 195 µM (not active) |  |  | 
27 | CCOC(=O)c1cc(-c2ccccc2)sc1NC(=O)CN1C(=O)NC(CC)(c2ccc(F)cc2)C1=O (stereo unspecified) |  | > 60 µM (not active) | 2.21 µM (active) | 
28 | CCCCCCCC(=O)Nc1cc(C(=O)NCCC)ccc1N1CCC2(CC1)CC(c1ccccc1)=NO2 |  | > 60 µM (not active) | 1.76 µM (active) | 
29 | COc1ccc(Cc2nc3c4c(ncn3n2)Oc2ccc3ccccc3c2C4c2ccc(OC)c(OC)c2)cc1 (stereo unspecified) |  | > 60 µM (inconclusive) | 1.52 µM (active) | 
30 | O=C(CCN1CCN(c2ccccc2)CC1)c1ccc(Br)cc1 |  | > 60 µM (not active) | 1.85 µM (active) | 
31 | Cc1ccc(N/C(SCc2ccccc2C)=C(/C#N)C(=O)NCc2ccco2)cc1C |  | > 60 µM (not active) | 1.3 µM (active) | 
32 | CC1CCCCN1C(=O)C(=O)c1cn(CC(=O)N2CCCCCC2)c2ccccc12 (stereo unspecified) |  | > 60 µM (not active) | 1.49 µM (active) | 
33 | Cc1cccc2cc(CN(Cc3ccc(F)cc3)Cc3nnnn3C3CCCC3)c(O)nc12 |  | 28.9 µM (active) | 2.38 µM (active) | 
34 | COc1ccc(CCN=C(S)NCc2ccc(Cl)c(Cl)c2)cc1OC |  | > 60 µM (inconclusive) | 2.05 µM (active) | 
35 | CCCC(C)NC(=O)C1c2ccccc2Oc2ccccc21 (stereo unspecified) | > 195 µM (not active) |  |  | 
36 | O=[N+]([O-])c1ccc(S(=O)(=O)N2CCN(Cc3c[nH]c4ccccc34)CC2)cc1 |  | > 60 µM (not active) | 1.31 µM (active) | 
37 | O=[N+]([O-])c1ccc(/N=C/c2sc3ccccc3c2O)cc1 | > 195 µM (not active) |  |  | 
38 | Cc1occc1C(=O)N/N=C/c1ccc(-c2cccc([N+](=O)[O-])c2)o1 |  | > 60 µM (not active) | 2.05 µM (active) | 

More lines, main results first:

Row | EC50 [1] | SMILES | EC50 [2] | EC50 [3] | further results
39 | > 195 µM (not active) | Cc1cc(=O)[nH]c2c1c(=O)[nH]n2C1CC(C)N(C)CC1C (stereo unspecified) |  |  | 
40 | > 195 µM (not active) | COc1ccc(N2CC(C(=O)Nc3nnc(C4CCCCC4)s3)CC2=O)cc1 (stereo unspecified) |  |  | 
41 | > 195 µM (not active) | CCCC(=O)Nc1ccc(Cl)c(NC(=O)c2cccnc2)c1 |  |  | 
42 | > 195 µM (not active) | CCOC(=O)c1c(C)[nH]c(C(=O)COC(=O)C2=NNC(=O)CC2)c1C |  |  | 
43 | > 195 µM (not active) | CCOc1ccc(CNCCCSc2ncccn2)cc1OC |  |  | 
44 | > 195 µM (not active) | CCCS(=O)(=O)N1CCc2cc(OC)c(OC)cc2C1 |  |  | 
45 | > 195 µM (not active) | CCN(Cc1ccc2c(c1)OCO2)C(=O)/C=C/c1cccc(Br)c1 |  |  | 
46 | > 195 µM (not active) | O=C(Nc1ccc(F)cc1)c1ccc(O)nn1 |  |  | 
47 | > 195 µM (not active) | CSc1nsc(SCC(=O)NCc2ccc(C)cc2)n1 |  |  | 
48 | 86.1 µM (active) | CCOC(=O)Cc1cc(O)c2cc(C)ccc2n1 |  |  | 
49 | > 195 µM (not active) | O=C(Nc1ccc(-n2ccnc2P(=O)(O)c2ccccc2)cc1)c1ccccc1Cl |  |  | 
50 | > 195 µM (not active) | CCCC1=Nc2cc(C(=O)NCCCN3CCN(C)CC3)ccc2Sc2ccccc21 |  |  | 
51 | > 195 µM (not active) | COc1cc(OC)cc(C(=O)N2CCN(S(C)(=O)=O)CC2)c1 |  |  | 
52 | > 195 µM (not active) | Nc1nonc1-c1noc(-c2ccccc2Br)n1 |  |  | 
53 | > 195 µM (not active) | CCCCOc1ccc(C2C(=O)N(C3CCCCC3)CC(=O)N2CC2CCCO2)cc1 (stereo unspecified) |  |  | 
54 | > 195 µM (not active) | CCCC1c2ccc(C)n2CCN1C(=O)Nc1ccc(F)cc1 (stereo unspecified) |  |  | 
55 | > 195 µM (not active) | Cc1nnc(N2C(=O)c3cccc4cccc(c34)C2=O)s1 |  |  | 
56 | > 195 µM (not active) | COc1ccc(Nc2nc(C)cc(C)c2C#N)cc1OC |  |  | 
57 | > 195 µM (not active) | CN(Cc1ccccc1)C(=O)CCS(=O)(=O)c1ccc2c(c1)n(C)c(=O)c(=O)n2C |  |  | 
58 | > 195 µM (not active) | CC(=O)Nc1cccc(C(=O)/C=C/c2ccc(C)cc2)c1 |  |  | 
59 | > 195 µM (not active) | CCn1c(=O)n(CC)c2cc(N3CCCC3)c(NC(=O)c3ccc(OC)c(Br)c3)cc21 |  |  | 
60 | > 195 µM (not active) | Cc1ccc(C)c(N2CCN(CCN3CCCCC3)CC2)c1 |  |  | 
61 | 60.1 µM (active) | COc1ccc(C(=O)C2CCCN(Cc3ccc(NC(C)=O)cc3)C2)cc1OC (stereo unspecified) |  |  | 
62 | > 195 µM (not active) | CC1=C(C(=O)Nc2ccccc2)C(c2cc(CN3CCOCC3)cs2)C2=C(O)CCCC2=N1 (stereo unspecified) |  |  | 
63 | > 195 µM (not active) | Nc1ccc2oc(C3CCCCC3)nc2c1 |  |  | 
64 | > 195 µM (not active) | CC(C)CCc1c(O)nc(SCC(=O)N2CCCCCC2)nc1O |  |  | 
65 | > 195 µM (not active) | c1ccc(Cc2nc3ccccc3o2)cc1 |  |  | 
66 | > 195 µM (not active) | O=C(N/N=C/c1ccc(Br)o1)c1ccc2c(c1)OCCO2 |  |  | 
67 | > 195 µM (not active) | Cn1c(C(C#N)C(=O)c2sc3ccccc3c2Cl)nc2ccccc21 (stereo unspecified) |  |  | 

— ChEMBL document CHEMBL1201862, “PubChem BioAssay data set” (2004)
